# Source: patent US7189754B2, “Pyrrolidine ester derivatives with oxytocin modulating activity” (Applied Research Systems ARS Holding NV, priority 2001, dated 2007)
# Target: T1, human Oxytocin (hOT) receptor (Homo sapiens, UniProt P30559)
# T1 construct: expressed in transfected cells; host or cells: HEK293EBNA
# T1 sequence (P30559 1-389): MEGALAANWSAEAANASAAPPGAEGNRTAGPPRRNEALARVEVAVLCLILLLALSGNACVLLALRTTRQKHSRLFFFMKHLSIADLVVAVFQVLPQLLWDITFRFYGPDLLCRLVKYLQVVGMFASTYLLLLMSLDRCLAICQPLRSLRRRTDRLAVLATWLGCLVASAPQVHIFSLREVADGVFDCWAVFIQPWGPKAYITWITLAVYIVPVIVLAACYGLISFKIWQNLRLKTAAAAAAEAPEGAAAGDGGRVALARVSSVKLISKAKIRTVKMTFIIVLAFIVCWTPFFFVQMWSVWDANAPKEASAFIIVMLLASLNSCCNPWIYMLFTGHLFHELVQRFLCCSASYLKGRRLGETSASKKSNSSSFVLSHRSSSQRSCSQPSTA
# Test: In vitro competition binding assay on hOT receptor with scintillation proximity assay ([125I]-OVTA)
# Details: HEK293EBNA membranes expressing hOT receptor, 0.2 nM [125I]-OVTA, SPA; read-out: Binding affinity human OT-R IC50
# Experimental: a) In Vitro Competition Binding Assay on hOT Receptor with Scintillation Proximity Assay (see Cook, N. D. et al. Pharmaceutical Manufacturing International 1992; p.49–53)
# This assay allows to determine the affinity of the test compounds for the human Oxytocin (hOT) receptor. Membranes from HEK293EBNA (cells expressing the hOT receptor) were suspended in buffer containing 50 mM Tris-HCl, pH 7.4, 5 mM MgCl2 and 0.1% BSA (w/v). The membranes (2–4 μg) were mixed with 0.1 mg SPA bead coated with wheat-germ aglutinin (WGA-PVT-Polyethylene Imine beads from Amersham) and 0.2 nM of the radiolabelled [^125I]-OVTA (OVTA being Ornithin Vasoactive, an analogue of OT for competitive binding experiments). Non-specific binding was determined in the presence of 1 μM Oxytocin. The total assay volume was 100 μl. The plates (Corning® NBS plate) were incubated at room temperature for 30 min and counted on a Mibrobeta® plate scintillation counter. Competitive binding was performed in presence of compounds of formula (I) at the following concentrations: 30 μM, 10 μM, 1 μM, 300 nM, 100 nM, 10 nM, 1 nM, 100 pM, 10 pM. The competitive binding data were analysed using the iterative, nonlinear, curve-fitting program, “Prism” (GraphPad Software, Inc).
# The ability of the pyrrolidine derivatives of formula (I) to inhibit the binding of ^125I-OVTA to the OT-receptor was assessed using the above described in vitro biological assay. Representative values for some example compounds are given in Table 1, where the binding affinity of the compounds is expressed by the IC50 (μM) which is the concentration upon which 50% inhibition of OT-R is achieved. From these values, it can be derived that said test compounds according to formula (I) do show a significant binding to the oxytocin receptor.
row,IC50 [nM],Compound
1,45,"CON=C1C[C@@H](C(=O)OC)N(C(=O)c2ccc(-c3ccccc3)cc2)C1 (mixture of isomers) [Methyl (2S,4EZ)-1-([1,1′-biphenyl]-4-ylcarbonyl)-4-(methoxyimino)-2-pyrrolidinecarboxylate]"
2,28,"CON=C1C[C@@H](C(=O)OC)N(C(=O)c2ccc(-c3ccccc3C)cc2)C1 [Methyl (2S,4EZ)-4-(methoxyimino)-1-[(2′-methyl[1,1′-biphenyl]-4-yl)carbonyl]-2-pyrrolidinecarboxylate]"
3,100,"CON=C1C[C@@H](C(=O)OC)N(C(=O)c2ccc(-c3ccccc3F)cc2)C1 (mixture of isomers) [Methyl (2S,4EZ)-4-(methoxyimino)-1-[(2′-fluoro[1,1′-biphenyl]-4-yl)carbonyl]-2-pyrrolidinecarboxylate]"
